Experimental findings from patent US20050197350A1, “Novel quinoline, tetrahydroquinazoline, and pyrimidine derivatives and methods of treatment related to the use thereof” (TAISHO PHARMACEUTICAL CO., LTD., priority 2003, published 2005) are described below.

The subject of the test is MCH receptors. As to the kind of experiment: MCH receptor activity class (method not given). The note with it: class by percent of control at 10^-7 M or IC50.

Take `Cc1cc(Br)ccc1NC(=O)N[C@H]1CC[C@@H](Nc2nc3c(c(N(C)C)n2)CCCC3)CC1` [compound 1729, N-(4-bromo-2-methylphenyl)-N′-(cis-4-{[4-(dimethylamino)-5,6,7,8-tetrahydroquinazolin-2-yl]amino}cyclohexyl)urea]: the class is listed as 2 (Class 2: The value of percent of control at 10^−7 M was from 40% to 60% or the value of IC′50 was from 50 nM to 200 nM.). As for `CN(C)c1nc(N[C@H]2CC[C@@H](NC(=O)Nc3ccc4c(c3)OCCO4)CC2)nc2c1CCCC2` [compound 1731], the figure is 3 (Class 3 The value of percent of control at 10^−7 M was more than 60% or the value of IC50 was more than 200 nM.); as for `CC(C)c1cc(Br)c(NC(=O)N[C@H]2CC[C@@H](Nc3nc4c(c(N(C)C)n3)CCCC4)CC2)c(Br)c1` [compound 1732], 3 (Class 3 The value of percent of control at 10^−7 M was more than 60% or the value of IC50 was more than 200 nM.); as for `COc1ccc(NC(=O)N[C@H]2CC[C@@H](Nc3nc4c(c(N(C)C)n3)CCCC4)CC2)cc1OC1CCCC1` [compound 1733], 3 (Class 3 The value of percent of control at 10^−7 M was more than 60% or the value of IC50 was more than 200 nM.). As for `CN(C)c1nc(N[C@H]2CC[C@@H](NC(=O)Nc3ccc4c(c3)OCCCO4)CC2)nc2c1CCCC2` [compound 1734], the figure is 3 (Class 3 The value of percent of control at 10^−7 M was more than 60% or the value of IC50 was more than 200 nM.); as for `CCCCc1ccc(NC(=O)N[C@H]2CC[C@@H](Nc3nc4c(c(N(C)C)n3)CCCC4)CC2)c(C)c1` [compound 1735], 3 (Class 3 The value of percent of control at 10^−7 M was more than 60% or the value of IC50 was more than 200 nM.). As for `Cc1onc(-c2ccccc2)c1NC(=O)N[C@H]1CC[C@@H](Nc2nc3c(c(N(C)C)n2)CCCC3)CC1` [compound 1736], the figure is 1 (Class 1: The value of percent of control at 10^−7 M was less than 40% or the value of IC50 was less than 50 nM.). Take `CN(C)c1nc(N[C@H]2CC[C@@H](NC(=S)Nc3ccc(Br)cc3)CC2)nc2c1CCCC2` [compound 1737]: the class is given as 3 (Class 3 The value of percent of control at 10^−7 M was more than 60% or the value of IC50 was more than 200 nM.).

`CN(C)c1nc(N[C@H]2CC[C@@H](NC(=S)Nc3ccc(C#N)cc3)CC2)nc2c1CCCC2` [compound 1738]: the class is recorded as 3 (Class 3 The value of percent of control at 10^−7 M was more than 60% or the value of IC50 was more than 200 nM.). As for `CN(C)c1nc(N[C@H]2CC[C@@H](NC(=S)Nc3ccc(Cl)cc3Cl)CC2)nc2c1CCCC2` [compound 1739], the figure is 3 (Class 3 The value of percent of control at 10^−7 M was more than 60% or the value of IC50 was more than 200 nM.); as for `COc1ccc(NC(=S)N[C@H]2CC[C@@H](Nc3nc4c(c(N(C)C)n3)CCCC4)CC2)c(OC)c1` [compound 1740, N-(2,4-dimethoxyphenyl)-N′-(cis-4-{[4-(dimethylamino)-5,6,7,8-tetrahydroquinazolin-2-yl]amino}cyclohexyl)thiourea], 1 (Class 1: The value of percent of control at 10^−7 M was less than 40% or the value of IC50 was less than 50 nM.). `Cc1cccc(C)c1NC(=S)N[C@H]1CC[C@@H](Nc2nc3c(c(N(C)C)n2)CCCC3)CC1` [compound 1741]: the class was 3 (Class 3 The value of percent of control at 10^−7 M was more than 60% or the value of IC50 was more than 200 nM.). As for `CCc1cccc(C(C)C)c1NC(=S)N[C@H]1CC[C@@H](Nc2nc3c(c(N(C)C)n2)CCCC3)CC1` [compound 1742], the figure is 3 (Class 3 The value of percent of control at 10^−7 M was more than 60% or the value of IC50 was more than 200 nM.); as for `COc1ccccc1NC(=S)N[C@H]1CC[C@@H](Nc2nc3c(c(N(C)C)n2)CCCC3)CC1` [compound 1743], 3 (Class 3 The value of percent of control at 10^−7 M was more than 60% or the value of IC50 was more than 200 nM.); as for `CN(C)c1nc(N[C@H]2CC[C@@H](NC(=S)Nc3cccc4ccccc34)CC2)nc2c1CCCC2` [compound 1744], 3 (Class 3 The value of percent of control at 10^−7 M was more than 60% or the value of IC50 was more than 200 nM.). As for `COc1cc(NC(=S)N[C@H]2CC[C@@H](Nc3nc4c(c(N(C)C)n3)CCCC4)CC2)cc(OC)c1OC` [compound 1745], the figure is 1 (Class 1: The value of percent of control at 10^−7 M was less than 40% or the value of IC50 was less than 50 nM.). As for `COc1ccc(NC(=S)N[C@H]2CC[C@@H](Nc3nc4c(c(N(C)C)n3)CCCC4)CC2)cc1OC` [compound 1746, N-(3,4-dimethoxyphenyl)-N′-(cis-4-{[4-(dimethylamino)-5,6,7,8-tetrahydroquinazolin-2-yl]amino}cyclohexyl)thiourea], the figure is 1 (Class 1: The value of percent of control at 10^−7 M was less than 40% or the value of IC50 was less than 50 nM.). Regarding `CN(C)c1nc(N[C@H]2CC[C@@H](NC(=S)Nc3ccc(N(C)C)c4ccccc34)CC2)nc2c1CCCC2` [compound 1747], the class is reported as 2 (Class 2: The value of percent of control at 10^−7 M was from 40% to 60% or the value of IC′50 was from 50 nM to 200 nM.).

`CCc1ccccc1NC(=S)N[C@H]1CC[C@@H](Nc2nc3c(c(N(C)C)n2)CCCC3)CC1` [compound 1748]: the class is 3 (Class 3 The value of percent of control at 10^−7 M was more than 60% or the value of IC50 was more than 200 nM.). Regarding `COc1cc([N+](=O)[O-])ccc1NC(=S)N[C@H]1CC[C@@H](Nc2nc3c(c(N(C)C)n2)CCCC3)CC1` [compound 1749], the class was 3 (Class 3 The value of percent of control at 10^−7 M was more than 60% or the value of IC50 was more than 200 nM.).

As for `COc1ccc(C)cc1NC(=S)N[C@H]1CC[C@@H](Nc2nc3c(c(N(C)C)n2)CCCC3)CC1` [compound 1750], the class is 2 (Class 2: The value of percent of control at 10^−7 M was from 40% to 60% or the value of IC′50 was from 50 nM to 200 nM.). As for `CN(C)c1nc(N[C@H]2CC[C@@H](NC(=S)Nc3ccc(Br)cc3Cl)CC2)nc2c1CCCC2` [compound 1751], the figure is 1 (Class 1: The value of percent of control at 10^−7 M was less than 40% or the value of IC50 was less than 50 nM.).

`CN(C)c1nc(N[C@H]2CC[C@@H](NC(=S)Nc3ccc(I)cc3)CC2)nc2c1CCCC2` [compound 1752]: the class is reported as 2 (Class 2: The value of percent of control at 10^−7 M was from 40% to 60% or the value of IC′50 was from 50 nM to 200 nM.). Take `CN(C)c1nc(N[C@H]2CC[C@@H](NC(=S)Nc3c(Cl)cc(Cl)cc3Cl)CC2)nc2c1CCCC2` [compound 1754]: the class is given as 2 (Class 2: The value of percent of control at 10^−7 M was from 40% to 60% or the value of IC′50 was from 50 nM to 200 nM.). As for `Cc1cc(C)c(NC(=S)N[C@H]2CC[C@@H](Nc3nc4c(c(N(C)C)n3)CCCC4)CC2)c(C)c1` [compound 1755], the figure is 1 (Class 1: The value of percent of control at 10^−7 M was less than 40% or the value of IC50 was less than 50 nM.); as for `Cc1ccc(NC(=S)N[C@H]2CC[C@@H](Nc3nc4c(c(N(C)C)n3)CCCC4)CC2)c(C)c1` [compound 1756], 2 (Class 2: The value of percent of control at 10^−7 M was from 40% to 60% or the value of IC′50 was from 50 nM to 200 nM.).
